Like-named read-outs stand apart in the source and are kept apart here.
Assays:
[1] = molecular target: human Farnesoid X receptor ligand-binding domain/Gal4 DNA binding domain chimera (Homo sapiens (Human), UniProt Q96RI1); test: Cell-based assay of FXR activation (FXR-UAS-bla HEK 293T beta-lactamase reporter); settings: cellular FXR beta-lactamase reporter assay; for Emax: HEK-293T, extent of activation relative to GW4064, read-out: % Efficacy; for EC50: FXR-UAS-bla HEK 293T cells, 16 h, pEC50 = -log EC50
human Farnesoid X receptor ligand-binding domain/Gal4 DNA binding domain chimera, sequence (Q96RI1 262-486, change not shown): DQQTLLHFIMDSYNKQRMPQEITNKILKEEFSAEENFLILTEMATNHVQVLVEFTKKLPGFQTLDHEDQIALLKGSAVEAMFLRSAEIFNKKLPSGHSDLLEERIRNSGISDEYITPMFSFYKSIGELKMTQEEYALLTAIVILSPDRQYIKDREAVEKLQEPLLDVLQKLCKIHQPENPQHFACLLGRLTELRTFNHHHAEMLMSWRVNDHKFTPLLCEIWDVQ
human Farnesoid X receptor ligand-binding domain/Gal4 DNA binding domain chimera, sequence (P04386 1-147 partner): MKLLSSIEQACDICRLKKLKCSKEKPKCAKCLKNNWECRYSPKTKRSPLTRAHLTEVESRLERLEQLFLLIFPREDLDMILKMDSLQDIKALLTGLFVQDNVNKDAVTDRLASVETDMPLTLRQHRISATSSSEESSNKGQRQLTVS
Summary of the method: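 Readout is cleavage of the CCF4 FRET substrate (409 nm excitation, blue 447 nm signal) by beta-lactamase, expressed under UAS control after a Gal4–human FXR LBD chimera is activated in HEK 293T cells. Compounds were added as 3-fold dilutions for 16 h at 37 °C in 2% charcoal-stripped FBS medium. Curves were fit to a 3-parameter logistic equation to give pEC50, with % activation relative to GW4064.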

[2] = molecular target: ligand binding domain of human FXR (Homo sapiens (Human), UniProt Q96RI1); test: FXR ligand binding assay (LanthaScreen TR-FRET, SRC2-2 peptide recruitment); settings: for Emax: read-out: % Efficacy
ligand binding domain of human FXR, sequence (Q96RI1 262-486): as the sequence (Q96RI1 262-486, change not shown) above

[3] = -log EC50, concentration required to produce 50% activation
[4] = extent of activation relative to GW4064

Structure (SMILES)	Emax [1] [%]	EC50 [1] [nM]	pEC50 [2, 3]	Emax [2, 4] [%]	Emax [2] [%]	EC50 [2, 3] [nM]
O=C(NCCS(=O)(=O)O)c1ccc(N2C[C@@H]3C[C@H]2C[C@H]3OCc2c(-c3c(Cl)cccc3Cl)noc2C2CC2)cc1 [Compound I-166, 2-({4-[(1S,4S,5R)-5-{[5-cyclopropyl-3-(2,6-dichlorophenyl)-1,2-oxazol-4-yl]methoxy}-2-azabicyclo[2.2.1]heptan-2-yl]phenyl}formamido)ethane-1-sulfonic Acid]	114	50.1	8.7	154		
O=C(O)CNC(=O)c1ccc(N2C[C@@H]3C[C@H]2C[C@H]3OCc2c(-c3c(Cl)cccc3Cl)noc2C2CC2)cc1F [Compound I-167, 2-({4-[(1S,4S,5R)-5-{[5-cyclopropyl-3-(2,6-dichlorophenyl)-1,2-oxazol-4-yl]methoxy}-2-azabicyclo[2.2.1]heptan-2-yl]-2-fluorophenyl}formamido)acetic Acid]	106	7.94	8.7	152		
O=C(NCCS(=O)(=O)O)c1ccc(N2C[C@@H]3C[C@H]2C[C@H]3OCc2c(-c3c(Cl)cccc3Cl)noc2C2CC2)cc1F [Compound I-168, 2-({4-[(1S,4S,5R)-5-{[5-cyclopropyl-3-(2,6-dichlorophenyl)-1,2-oxazol-4-yl]methoxy}-2-azabicyclo[2.2.1]heptan-2-yl]-2-fluorophenyl}formamido)ethane-1-sulfonic Acid]	107	100	8.6	164		
CS(=O)(=O)CCNC(=O)c1ccc(N2C[C@@H]3C[C@H]2C[C@H]3OCc2c(-c3c(Cl)cccc3Cl)noc2C2CC2)cc1 [Compound I-169, 4-[(1S,4S,5R)-5-{[5-cyclopropyl-3-(2,6-dichlorophenyl)-1,2-oxazol-4-yl]methoxy}-2-azabicyclo[2.2.1]heptan-2-yl]-N-(2-methanesulfonylethyl)benzamide]	106	1.58	8.4	160		
CS(=O)(=O)CCNC(=O)c1ccc(N2C[C@@H]3C[C@H]2C[C@H]3OCc2c(-c3c(Cl)cccc3Cl)noc2C2CC2)cc1F [Compound I-170, 4-[(1S,4S,5R)-5-{[5-cyclopropyl-3-(2,6-dichlorophenyl)-1,2-oxazol-4-yl]methoxy}-2-azabicyclo[2.2.1]heptan-2-yl]-2-fluoro-N-(2-methanesulfonylethyl)benzamide]	103	1.26	9.4	142		
O=C(NCCS(=O)(=O)C1CC1)c1ccc(N2C[C@@H]3C[C@H]2C[C@H]3OCc2c(-c3c(Cl)cccc3Cl)noc2C2CC2)cc1F [Compound I-171, N-[2-(cyclopropanesulfonyl)ethyl]-4-[(1S,4S,5R)-5-{[5-cyclopropyl-3-(2,6-dichlorophenyl)-1,2-oxazol-4-yl]methoxy}-2-azabicyclo[2.2.1]heptan-2-yl]-2-fluorobenzamide]	104	0.794	8.6	147		
O=C(NCCS(=O)(=O)C1CCOCC1)c1ccc(N2C[C@@H]3C[C@H]2C[C@H]3OCc2c(-c3c(Cl)cccc3Cl)noc2C2CC2)cc1F [Compound I-172, 4-[(1S,4S,5R)-5-{[5-cyclopropyl-3-(2,6-dichlorophenyl)-1,2-oxazol-4-yl]methoxy}-2-azabicyclo[2.2.1]heptan-2-yl]-2-fluoro-N-[2-(oxane-4-sulfonyl)ethyl]benzamide]	110	1	8.4	160		
Cc1cc(C(=O)NCCP(=O)(O)O)ccc1N1C[C@@H]2C[C@H]1C[C@H]2OCc1c(-c2c(Cl)cccc2Cl)noc1C1CC1 [Compound I-173, [2-({4-[(1S,4S,5R)-5-{[5-cyclopropyl-3-(2,6-dichlorophenyl)-1,2-oxazol-4-yl]methoxy}-2-azabicyclo[2.2.1]heptan-2-yl]-3-methylphenyl}formamido)ethyl]phosphonic Acid]	114	100	9.2		144	
Cc1cc(C(=O)NCCP(=O)(OCOC(=O)C(C)(C)C)OCOC(=O)C(C)(C)C)ccc1N1C[C@@H]2C[C@H]1C[C@H]2OCc1c(-c2c(Cl)cccc2Cl)noc1C1CC1 [Compound I-174, ({[2-({4-[(1S,4S,5R)-5-{[5-cyclopropyl-3-(2,6-dichlorophenyl)-1,2-oxazol-4-yl]methoxy}-2-azabicyclo[2.2.1]heptan-2-yl]-3-methylphenyl}formamido)ethyl]({[(2,2-dimethylpropanoyl)oxy]methoxy})phosphoryl}oxy)methyl 2,2-dimethylpropanoate]	152	251	8.8	161		
O=P(O)(O)CCc1ccc(N2C[C@@H]3C[C@H]2C[C@H]3OCc2c(-c3c(Cl)cccc3Cl)noc2C2CC2)cc1 [Compound I-175, (2-{4-[(1S,4S,5R)-5-{[5-cyclopropyl-3-(2,6-dichlorophenyl)-1,2-oxazol-4-yl]methoxy}-2-azabicyclo[2.2.1]heptan-2-yl]phenyl}ethyl)phosphonic Acid]	101	631	8.2		120	
O=P(O)(O)Cc1ccc(N2C[C@@H]3C[C@H]2C[C@H]3OCc2c(-c3c(Cl)cccc3Cl)noc2C2CC2)cc1 [Compound I-176, ({4-[(1S,4S,5R)-5-{[5-cyclopropyl-3-(2,6-dichlorophenyl)-1,2-oxazol-4-yl]methoxy}-2-azabicyclo[2.2.1]heptan-2-yl]phenyl}methyl)phosphonic Acid]	92	631	7.5		120	
COC(=O)c1ccc(N2C[C@@H]3C[C@H]2C[C@H]3OCc2c(-c3c(Cl)cccc3Cl)noc2C2CC2)cc1F [Compound I-177, methyl 4-[(1S,4S,5R)-5-{[5-cyclopropyl-3-(2,6-dichlorophenyl)-1,2-oxazol-4-yl]methoxy}-2-azabicyclo[2.2.1]heptan-2-yl]-2-fluorobenzoate]	109	12.6	7.4	130		
O=C(O)c1nnc(N2C[C@@H]3C[C@H]2C[C@H]3OCc2c(-c3c(Cl)cccc3Cl)noc2C2CC2)s1 [Compound I-178, 5-[(1S,4S,5R)-5-{[5-cyclopropyl-3-(2,6-dichlorophenyl)-1,2-oxazol-4-yl]methoxy}-2-azabicyclo[2.2.1]heptan-2-yl]-1,3,4-thiadiazole-2-carboxylic Acid]	70	158	6.9	86		
Cn1nc(C(=O)O)cc1N1C[C@@H]2C[C@H]1C[C@H]2OCc1c(-c2c(Cl)cccc2Cl)noc1C1CC1 [Compound I-180, 5-[(1S,4S,5R)-5-[[5-cyclopropyl-3-(2,6-dichlorophenyl)-1,2-oxazol-4-yl]methoxy]-2-azabicyclo[2.2.1]heptan-2-yl]-1-methyl-1H-pyrazole-3-carboxylic acid]		< 316	>6.5			
O=C(NS(=O)(=O)C1CCCCC1)c1ccc(N2C[C@@H]3C[C@H]2C[C@H]3OCc2c(-c3c(Cl)cccc3Cl)noc2C2CC2)cc1 [Compound I-181, N-(cyclohexanesulfonyl)-4-[(1S,4S,5R)-5-{[5-cyclopropyl-3-(2,6-dichlorophenyl)-1,2-oxazol-4-yl]methoxy}-2-azabicyclo[2.2.1]heptan-2-yl]benzamide]	110	0.0631	8.8		166	
O=C(NS(=O)(=O)C1CCOCC1)c1ccc(N2C[C@@H]3C[C@H]2C[C@H]3OCc2c(-c3c(Cl)cccc3Cl)noc2C2CC2)cc1 [Compound I-182, 4-[(1S,4S,5R)-5-{[5-cyclopropyl-3-(2,6-dichlorophenyl)-1,2-oxazol-4-yl]methoxy}-2-azabicyclo[2.2.1]heptan-2-yl]-N-(oxane-4-sulfonyl)benzamide]	106	0.158		156		1.26
O=C(NS(=O)(=O)C1CCC1)c1ccc(N2C[C@@H]3C[C@H]2C[C@H]3OCc2c(-c3c(Cl)cccc3Cl)noc2C2CC2)cc1 [Compound I-183, N-(cyclobutylsulfonyl)-4-((1S,4S,5R)-5-((5-cyclopropyl-3-(2,6-dichlorophenyl)isoxazol-4-yl)methoxy)-2-azabicyclo[2.2.1]heptan-2-yl)benzamide]	119	0.1	8.6	163		
O=C(NS(=O)(=O)C1COC1)c1ccc(N2C[C@@H]3C[C@H]2C[C@H]3OCc2c(-c3c(Cl)cccc3Cl)noc2C2CC2)cc1 [Compound I-184, 4-((1S,4S,5R)-5-((5-cyclopropyl-3-(2,6-dichlorophenyl)isoxazol-4-yl)methoxy)-2-azabicyclo[2.2.1]heptan-2-yl)-N-(oxetan-3-ylsulfonyl)benzamide]	108	3.16	7.7	161		
O=C(NS(=O)(=O)C1CCOC1)c1ccc(N2C[C@@H]3C[C@H]2C[C@H]3OCc2c(-c3c(Cl)cccc3Cl)noc2C2CC2)cc1 (stereo partly drawn) [Compound I-185, 4-((1S,4S,5R)-5-((5-cyclopropyl-3-(2,6-dichlorophenyl)isoxazol-4-yl)methoxy)-2-azabicyclo[2.2.1]heptan-2-yl)-N-((tetrahydrofuran-3-yl)sulfonyl)benzamide]	105	0.1	8.9	155		
